In US20140213466A1, “HIGH-THROUGHPUT ASSESSMENT METHOD FOR CONTACT HYPERSENSITIVITY” (Rutgers, The State University of New Jersey, priority 2010, published 2014):

Columns and labels:
[1] = test system: skin tissues (Episkin / Mutz3-LC co-culture); assay: cytokine measurements (27 cytokines) of skin tissues exposed to known sensitizing chemicals, analysed by PCA; assay type: cell-based, human; conditions: several chemical concentrations, multiple replicates, comparison IE vs SA
Experimental: We have taken cytokine measurements of skin tissues that were exposed to known sensitizing chemicals. […] Principal component analysis (PCA) was used to reduce the high dimensional data into a lower dimension so that the differences in response from each chemical could be visualized.
Multiple cytokines and growth factors were assessed using the Biorad Bioplex Analyzer. 1 ml supernatants were collected for undifferentiated Mutz3 cells, Day 7 differentiated cells [Mutz3-LC] and Day 9 mature cells [mMutz3-LC]. The supernatants were tested for 27 cytokines with respective standards to detect cytokine secretion levels. Basal media samples were utilized as controls and supplementation with growth factors and cytokines viz. GMCSF, TGF-beta1, TNF-alpha, IL-6, IL1β were taken into account in the calculations. Cytokine secretion levels [pg/ml] were converted to [pg/million cells/day] by normalizing with the cell number for each cell stage of differentiation.
Different doses of SA (Salicylic Acid), IE (Isoeugenol), PPD (Paraphenylenediamine) and DNCB (DiNitroChlorobenzene) were topically applied onto a 1 cm^2 nylon disc to Episkin™ in 12 well inserts. The lower chamber consisted of Mutz3-LCs at a density of 250,000 cells/ml. Forty eight (48) hrs post sensitization, cells were resuspended in 1 ml fresh maturation media, supernatants were collected for subsequent analysis and cell count was performed. […]

[2] = stated as known property of the chemical; cited from earlier work

| Compound | cytokine profile induced in skin tissues (PCA, FIG. 11) [1] | skin sensitizer class [2] |
| --- | --- | --- |
| O=C(O)c1ccccc1O | do not induce distinct cytokine profiles | non-sensitizing irritant |
| CC=Cc1ccc(O)c(OC)c1 [isoeugenol] | do not induce distinct cytokine profiles | strong sensitizer |
